Assay [1] addresses T1, Protein tyrosine phosphatase 1B (PTP1B) (Homo sapiens, UniProt P18031).
T1 construct: gene PTPN1
T1 sequence (P18031 1-435): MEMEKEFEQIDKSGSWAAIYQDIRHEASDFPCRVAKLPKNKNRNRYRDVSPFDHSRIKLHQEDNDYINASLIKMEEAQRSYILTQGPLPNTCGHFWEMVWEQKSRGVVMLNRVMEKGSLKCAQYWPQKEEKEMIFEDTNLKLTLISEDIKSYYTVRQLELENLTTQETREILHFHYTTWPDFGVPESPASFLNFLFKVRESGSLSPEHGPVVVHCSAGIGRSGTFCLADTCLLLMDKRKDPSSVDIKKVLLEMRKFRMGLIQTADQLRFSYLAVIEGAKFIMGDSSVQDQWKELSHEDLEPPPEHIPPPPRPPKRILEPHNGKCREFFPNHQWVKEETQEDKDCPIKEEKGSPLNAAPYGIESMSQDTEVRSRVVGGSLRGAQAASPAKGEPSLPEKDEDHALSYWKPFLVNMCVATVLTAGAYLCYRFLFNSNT
Kind of assay: pNPP phosphatase inhibition assay with Lineweaver-Burk kinetics (Ki […], Kis […]); also fished out by PTP1B displayed on E. coli. It is filed as biochemical.

Assay [2] addresses T1, Protein tyrosine phosphatase 1B (PTP1B). In words: ligand fishing with E. coli surface-displayed PTP1B, HPLC readout, with control cells; not fished by MNPs-PTP1B. Type of assay: cell-based.

With `O=C(/C=C/c1ccc(O)c2c1[C@H](C(=O)O[C@H](Cc1ccc(O)c(O)c1)C(=O)O)[C@@H](c1ccc(O)c(O)c1)O2)O[C@H](Cc1ccc(O)c(O)c1)C(=O)O` [salvianolic acid B], the midpoint of inhibition in assay [1], the IC50, lay at 23.3 µM.

As for `C[C@@H]1O[C@@H](OC[C@H]2O[C@@H](Oc3c(-c4ccc(O)c(O)c4)oc4cc(O)cc(O)c4c3=O)[C@H](O)[C@@H](O)[C@@H]2O)[C@H](O)[C@H](O)[C@H]1O` [II, rutin], the “ligand fishing with E. coli surface-displayed PTP1B, HPLC readout, with control” value in assay [2] is reported as “only EC-PTP1B extracted the positive compound rutin, indicating that EC-PTP1B was efficient for fishing the enzyme ligand”.

Values taken from article PMC9693971, “Fast Screening of Protein Tyrosine Phosphatase 1B Inhibitor from Salvia miltiorrhiza Bge by Cell Display-Based Ligand Fishing” (Molecules, 2022).
